Laboratory results: patent US20240397944A1, “METHODS FOR BIOFILM DISRUPTION” (Neolixir Limited, priority 2021, published 2024)
Values after ≈ are worked out from the molar mass of the structure shown.

Key:
[1] = test system: Pseudomonas aeruginosa biofilm; assay: Crystal violet biofilm formation and mature biofilm assay; format: cell-based; conditions: added at t=0 (de novo forming) or t=24 hours (established), pH 7.0, FIG. 5
Protocol: (§1) After addition of treatments, all plates were then incubated for 24 hours at 37° C.
(§2) Following incubation at room temperature for 15 minutes the microtiter plates were washed 3-4 times with water by submerging in water, with blotting to rid the plate of all excess cells and dye. Plates were left to dry overnight. The CV stain was solubilised with 125 ul of 30% acetic acid and absorbance to indicate biofilm biomass quantified at 550 nm following an incubation of 15 minutes, normalised to vehicle only.

[2] = test system: Staphylococcus aureus biofilm; assay: as above; format: cell-based; conditions: added at t=0 (de novo forming) or t=24 hours (established), pH 7.0, FIG. 5
Protocol: as §1, §2

S. epidermidis biofilm = assay: as above; format: cell-based, Staphylococcus epidermidis; conditions: added at t=0 (de novo forming) or t=24 hours (established), pH 7.0, FIG. 5
Protocol: as §1, §2

[3] = Octanol-Water; cited from earlier work
[4] = cited from earlier work
[5] = rat, 4 h; cited from earlier work
[6] = rabbit; cited from earlier work
[7] = test system: P. aeruginosa clinical isolates from patients with cystic fibrosis; assay: Crystal violet staining of biofilm microcolonies from clinical isolates; format: cell-based; conditions: for Biofilm breakdown (% from baseline) / Isolates responsive to breakdown (% of isolates): 0.5-1.25 ug/ml, 24 hours
[8] = test system: P. aeruginosa clinical isolates from patients with cystic fibrosis; assay: Resazurin staining of biofilm microcolonies from clinical isolates; conditions: for Altered metabolism with treatment (% of isolates) / Metabolism change (% from baseline): 0.5-1.25 ug/ml, 24 hours
Protocol: Cultures of interest were thawed and streaked out on blood agar plates and allowed to grow at 37° C., 5% CO2 for 12-24 hours until suitable growth was achieved to enable further culturing. An isolated colony was looped into 5 ml of LB broth and incubated overnight at 37° C., 5% CO2.
Stock cultures were diluted 1:1000 in 1% of appropriate media (LB for mucoid P. aeruginosa strains; M63 medium was used for P. aeruginosa rough strains 001-11R; PMM for all other strains) to achieve approximately 10^8 cfu/ml (confirmed by measuring 0.02 absorbance units, approximately 1.8 ul in 2 ml of media). Diluted working cultures were mixed well and seeded at 200 ul/well across a 96 well microtitre plate, with biofilm formation complete approximately 24-48 hours following seeding.
Treatments were completed in duplicate for all bacterial strains across the dose range used.
Viable cells reduce the blue resazurin dye to the pink-fluorescent resorufin form. Following incubation fluorescence was quantified by excitation wavelength of 540 nm and an emission wavelength of 590 nm using Enspire microplate reader.

S. aureus (ATCC 33592) = assay: Antimicrobial activity on planktonic bacteria, flow cytometry and broth microdilution; conditions: for MIC: Staphylococcus aureus, ATCC33592, read-out: minimum inhibitory concentration (MIC); for concentration at which first significant phenotypic change (decrease in SYTO 9 fluorescence) was observed: flow cytometry, 3 hours
Protocol: (§3) This was undertaken in parallel with a conventional broth microdilution (BMD) assay.
(§4) Two-fold serial dilutions of D- or L-lactate were performed in a 96-well plate, ranging from 0.008 grams per litre to 8 g/L with a volume of 50 μL per well.
(§5) The bacterial suspensions were prepared from cultures grown overnight in trypticase soya broth (TSB). Each culture was diluted 1:1000 in Hanks buffered saline solution (HBSS), stained with 1 μL of SYTO® 9, incubated for a minimum of 8 minutes with shaking, and enumerated by flow cytometry. The TSB cultures were then adjusted to 2×10^5 cells per mL in CAMHB.
(§6) To the replicate dilution series of lactic acids, 50 μL of bacterial suspension was added for a final volume of 100 μL per well, each row containing a concentration gradient ranging from 0.004 to 4 g/L. There were 3 organisms per plate (E. coli, P. aeruginosa, S. aureus), set up in duplicate. […] These wells were representative of the suspension density at the time of inoculation.
(§7) For conventional BMD, the incubation time was 24 hours. For flow cytometry, the incubation time was 3 hours. For flow cytometry, following incubation 100 μL of HBSS, containing SYTO® 9 at a concentration of 10 μM was added to each well of the plate for a final dye concentration of 5 μM. The plates were then incubated at ambient temperature in the dark for 10 minutes, loaded onto the Attune™ Autosampler, and the data acquired. The plates were run simultaneously on two different Attune™ cytometers.

[9] = test system: Pseudomonas aeruginosa (WACC91 and PA-001) biofilm; assay: Crystal violet staining of biofilm-protected P. aeruginosa microcolonies; format: cell-based
Protocol: Laboratory strains of Pseudomonas aeruginosa (WACC91 and PA-001) were thawed (stored as 50% glycerol stocks at −70° C.+2° C.) and streaked out on blood agar plates. […] In this case cultures were propagated to stationary phase to induce stress responses needed to induce biofilm formation on seeding for treatment. […] Biofilm formation was complete approximately 24-48 hours following seeding, this was confirmed by a minimum of 1.8 absorbance units at 600 nm. Prebiotic solution collected from C1 was applied to B0 cultures that had achieved biofilm formation. A 10 dose dilution series of the prebiotic test solution in PMM was prepared (Table 2) to determine the optimal dose range for biofilm disruption of B0 cultures, with 50 μl total volume added to each B0 culture. […] The CV stain was solubilised with 125 ul of 30% acetic acid and absorbance to indicate biofilm density (also referred to as biofilm biomass) was quantified at 550 nm following an incubation of 15 minutes at room temperature. […] Biofilm formation was complete approximately 24-48 hours following seeding as confirmed by a minimum of 1.8 absorbance units at 600 nm. […] The CV stain was solubilised with 125 ul of 30% acetic acid and absorbance to indicate biofilm biomass quantified at 550 nm following an incubation of 15 minutes.

E. coli (ATCC 25922) = assay: Antimicrobial activity on planktonic bacteria, flow cytometry and broth microdilution; conditions: for MIC: Escherichia coli, ATCC25922, read-out: minimum inhibitory concentration (MIC); for concentration at which first significant phenotypic change (decrease in SYTO 9 fluorescence) was observed: flow cytometry, 3 hours
Protocol: as §3, §4, §5, §6, §7

[10] = test system: P. aeruginosa (ATCC 27853); assay: as above; conditions: for MIC: Pseudomonas aeruginosa, ATCC27853, read-out: minimum inhibitory concentration (MIC); for concentration at which first significant phenotypic change (decrease in SYTO 9 fluorescence) was observed: flow cytometry, 3 hours
Protocol: as §3, §4, §5, §6, §7

[11] = test system: Pseudomonas aeruginosa (WACC91) biofilm-protected microcolonies; assay: Resazurin staining, bacterial metabolic activity of biofilm-protected cultures; format: cell-based
Protocol: Laboratory strains of Pseudomonas aeruginosa (WACC91 and PA-001) were thawed (stored as 50% glycerol stocks at −70° C.+2° C.) and streaked out on blood agar plates. […] In this case cultures were propagated to stationary phase to induce stress responses needed to induce biofilm formation on seeding for treatment.
Biofilm formation was complete approximately 24-48 hours following seeding, this was confirmed by a minimum of 1.8 absorbance units at 600 nm.
Prebiotic solution collected from C1 was applied to B0 cultures that had achieved biofilm formation. A 10 dose dilution series of the prebiotic test solution in PMM was prepared (Table 2) to determine the optimal dose range for biofilm disruption of B0 cultures, with 50 μl total volume added to each B0 culture.
A 12-fold serial dilution of tobramycin (99% pure tobramycin sulfate powder, Research Products International) standards were prepared in PMM (8 ng/ml-16 ug/ml), to act as a reference point for assessing biofilm disruption activity observed by the prebiotic test treatment (Table 2). Tobramycin is an antibiotic commonly used to treat chronic respiratory bacterial infections, particularly Pseudomonas aeruginosa. A total of 50 ul of tobramycin standards were added to B0 cultures that had achieved biofilm formation. […]

**Q.** With `CC(O)C(=O)O` (racemic) [racemic mix (D/L), D/L lactic acid] as the molecule, how does the “biofilm mass (crystal violet) compared to baseline” value (“biofilm mass … compared to baseline” for short) [1] read?
**A.** variable results

**Q.** And the “biofilm mass … compared to baseline” value [2]?
**A.** variable results

**Q.** And the “biofilm mass … compared to baseline” value (S. epidermidis biofilm)?
**A.** variable results

**Q.** What does the source list for `O=C(O)C(O)c1ccccc1` (stereo not drawn) [2-hydroxy-2-phenylacetic acid]?
**A.** Log P [3]: 0.67; Water solubility [4]: 1140 mM

**Q.** With `CCC(O)C(=O)O` (stereo not drawn) [2-hydroxybutanoic acid] as the molecule, how does the Water solubility [4] read?
**A.** 1930 mM

**Q.** With `CCCCC(O)C(=O)O` (stereo not drawn) [2-hydroxyhexanoic acid] as the molecule, how does the Water solubility [4] read?
**A.** 270 mM

**Q.** With `CCCC(O)C(=O)O` (stereo not drawn) [2-hydroxypentanoic acid] as the molecule, how does the Water solubility [4] read?
**A.** 1640 mM

**Q.** Which “LC50 Inhalation” value [5] does the source give for `CC(O)C(=O)O` (stereo not drawn) [2-hydroxypropanoic acid] here?
**A.** >7.94 mg/L (rat) 4 h

**Q.** And the “LD50 Dermal” value [6]?
**A.** >2000 mg/kg (rabbit)

**Q.** Which “Biofilm breakdown (% from baseline)” value ([7]; Mucoid isolates) does the source give for `C[C@@H](O)C(=O)O` [D-lactic acid, (2R)-2-hydroxypropanoic acid] here?
**A.** 17.2 % from baseline

**Q.** What about the “Isolates responsive to breakdown (% of isolates)” value ([7]; Mucoid isolates) of the same molecule?
**A.** 60 % of isolates

**Q.** What about the “Biofilm breakdown (% from baseline)” value ([7]; Non-mucoid isolates) of the same molecule?
**A.** 23 % from baseline

**Q.** What about the “Isolates responsive to breakdown (% of isolates)” value ([7]; Non-mucoid isolates) of the same molecule?
**A.** 53.8 % of isolates

**Q.** What about the “share of all strains showing evidence of biofilm disruption” value ([7]; all strains tested) of the same molecule?
**A.** Greater than 50%

**Q.** And the “Altered metabolism with treatment (% of isolates)” value ([8]; Mucoid isolates)?
**A.** 75 % of isolates

**Q.** What about the “Metabolism change (% from baseline)” value ([8]; Mucoid isolates) of the same molecule?
**A.** 37 % from baseline

**Q.** What about the “Altered metabolism with treatment (% of isolates)” value ([8]; Non-mucoid isolates) of the same molecule?
**A.** 69.2 % of isolates

**Q.** What about the “Metabolism change (% from baseline)” value ([8]; Non-mucoid isolates) of the same molecule?
**A.** 46.1 % from baseline

**Q.** And the “share of all strains tested showing a change in metabolic activity” value ([8]; all strains tested)?
**A.** More than 65%

**Q.** And the MIC (S. aureus (ATCC 33592))?
**A.** 4000 µg/mL (≈ 44.4 mM)

**Q.** And the “concentration at which first significant phenotypic change (decrease in SYTO 9 fluorescence) was observed” value (S. aureus (ATCC 33592))?
**A.** 1 g/L

**Q.** And the “active dose range for biofilm disruption” value ([9]; pure grade standards run against prebiotic test solution dilutions, methods of Example 1)?
**A.** 0.25 to 1.25 mg/mL

**Q.** What about the MIC (E. coli (ATCC 25922)) of the same molecule?
**A.** 4000 µg/mL (≈ 44.4 mM)

**Q.** And the “concentration at which first significant phenotypic change (decrease in SYTO 9 fluorescence) was observed” value (E. coli (ATCC 25922))?
**A.** 1 g/L

**Q.** What about the MIC [10] of the same molecule?
**A.** 4000 µg/mL (≈ 44.4 mM)

**Q.** And the “concentration at which first significant phenotypic change (decrease in SYTO 9 fluorescence) was observed” value [10]?
**A.** 1 g/L

**Q.** Which results are given for `C[C@H](O)C(=O)O` [L-lactic acid, reference compound]?
**A.** MIC (S. aureus (ATCC 33592)): 4000 µg/mL (≈ 44.4 mM); concentration at which first significant phenotypic change (decrease in SYTO 9 fluorescence) was observed (S. aureus (ATCC 33592)): 1 g/L; biofilm mass (crystal violet) compared to baseline [1]: not; biofilm mass (crystal violet) compared to baseline [2]: not; MIC (E. coli (ATCC 25922)): 4000 µg/mL (≈ 44.4 mM); concentration at which first significant phenotypic change (decrease in SYTO 9 fluorescence) was observed (E. coli (ATCC 25922)): 1 g/L; biofilm mass (crystal violet) compared to baseline (S. epidermidis biofilm): not; MIC [10]: 4000 µg/mL (≈ 44.4 mM); concentration at which first significant phenotypic change (decrease in SYTO 9 fluorescence) was observed [10]: 1 g/L

**Q.** With `NC[C@H]1O[C@H](O[C@H]2[C@H](O)[C@@H](O[C@H]3O[C@H](CO)[C@@H](O)[C@H](N)[C@H]3O)[C@H](N)C[C@@H]2N)[C@H](N)C[C@@H]1O` [tobramycin] as the molecule, how does the “concentrations at which reduced metabolic activity was observed” value ([11]; WACC91, 24 hrs treatment, supernatants) read?
**A.** 1 to 16 µg/mL

**Q.** What about the “inhibition of metabolic activity relative to prebiotic test solution (90%)” value ([11]; bioactive dose 16 ug/ml) of the same molecule?
**A.** comparable

**Q.** What about the reduced biofilm density ([9]; tobramycin 16 ug/ml, bioactive dose) of the same molecule?
**A.** 80-90%
